Measurements published in ChEMBL document CHEMBL1138308, “Synthesis and antibacterial activity of potent heterocyclic oxazolidinones and the identification of RBx 8700” (2007).
Converted amounts (≈) assume the structure as drawn.

Tested on: Mycobacterium tuberculosis
Assay: Antibacterial activity against multi drug resistant Mycobacterium tuberculosis
Format: functional

With `CC(=O)NC[C@H]1CN(c2ccc(N3CCN(c4ccc([N+](=O)[O-])s4)CC3)c(F)c2)C(=O)O1` the MIC90 was 1 µg/mL (≈ 2.16 µM).
